The source made the active and inactive calls. No cut-off for these calls is given here. Positions of bridges follow the written chain, without caps; N, C: chain ends. Residues, ends and D or L forms follow the SMILES beside them.
What was measured:
[1] = target: T1, Urotensin-2 receptor (Rattus norvegicus) (UniProt P49684); assay: Agonist activity at urotensin-2 receptor in Sprague-Dawley rat aortic rings assessed as KCl-induced vasoconstriction at 10^-5.5 M relative to control
T1 sequence (whole entry): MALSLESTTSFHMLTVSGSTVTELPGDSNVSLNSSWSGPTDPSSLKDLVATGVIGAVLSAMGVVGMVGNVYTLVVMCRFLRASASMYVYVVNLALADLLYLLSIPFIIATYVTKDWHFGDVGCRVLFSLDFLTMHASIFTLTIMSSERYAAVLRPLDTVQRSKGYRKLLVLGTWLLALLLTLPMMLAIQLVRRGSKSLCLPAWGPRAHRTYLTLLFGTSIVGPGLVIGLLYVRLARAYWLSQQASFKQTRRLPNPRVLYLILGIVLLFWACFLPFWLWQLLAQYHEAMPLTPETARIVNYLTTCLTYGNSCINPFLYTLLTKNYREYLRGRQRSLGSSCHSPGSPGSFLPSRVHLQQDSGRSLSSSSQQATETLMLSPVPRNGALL

Urotensin-2 receptor [2] = target: T2, Urotensin-2 receptor (Homo sapiens, UniProt Q9UKP6); assay: Displacement of [125I]-Urotensin-2 from human GPR14 expressed in CHO cells after 90 mins by gamma counting analysis; assay type: cell-based
T2 sequence (Q9UKP6 whole entry): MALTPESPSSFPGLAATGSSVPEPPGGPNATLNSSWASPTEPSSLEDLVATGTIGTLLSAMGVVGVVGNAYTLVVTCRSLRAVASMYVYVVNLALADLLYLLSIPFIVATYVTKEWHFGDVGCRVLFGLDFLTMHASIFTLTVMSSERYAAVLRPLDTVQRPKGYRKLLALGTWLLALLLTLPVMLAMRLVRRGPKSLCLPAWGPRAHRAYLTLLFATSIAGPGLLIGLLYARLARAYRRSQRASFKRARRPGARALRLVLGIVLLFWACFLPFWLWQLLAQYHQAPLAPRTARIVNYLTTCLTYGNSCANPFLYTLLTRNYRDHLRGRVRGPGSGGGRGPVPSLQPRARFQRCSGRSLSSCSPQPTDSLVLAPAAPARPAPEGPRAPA

[3] = target: T1, Urotensin-2 receptor (Rattus norvegicus); assay: Agonist activity at urotensin-2 receptor in Sprague-Dawley rat aortic rings assessed as KCl-induced vasoconstriction at 3 X 10^-11 to 3 X 10^-6 M relative to control
Urotensin-2 receptor [4] = target: T3, Urotensin-2 receptor (Rattus norvegicus, UniProt P49684); assay: Agonist activity at urotensin-2 receptor in Sprague-Dawley rat aortic rings assessed as KCl-induced vasoconstriction
T3 sequence (P49684 whole entry): T1 sequence (whole entry)

Work on `CC(C)[C@H](NC(=O)[C@@H]1CSSC[C@H](NC(=O)[C@H](C)N)C(=O)N[C@@H](Cc2ccccc2)C(=O)N[C@@H](Cc2ccc(I)cc2)C(=O)N[C@@H](CCCCN)C(=O)N[C@@H](Cc2ccc(O)cc2)C(=O)N1)C(=O)O` yielded an Emax [1] of 92% and an IC50 (Urotensin-2 receptor [2]; read-out: IC50) of 58 nM.

`CC(C)[C@H](NC(=O)[C@@H]1CSSC[C@H](NC(=O)[C@H](C)N)C(=O)N[C@@H](Cc2ccccc2)C(=O)N2Cc3[nH]c4ccccc4c3C[C@H]2C(=O)N[C@@H](CCCN)C(=O)N[C@@H](Cc2ccc(O)cc2)C(=O)N1)C(=O)O` was tested, and the Emax [3] was “inactive”, the EC50 (Urotensin-2 receptor [4]) was “Not Active” and the IC50 (Urotensin-2 receptor [2]; read-out: pIC50 (converted)) was greater than 10000 nM.

For `CC(C)[C@H](NC(=O)[C@@H]1CSSC[C@H](NC(=O)[C@H](C)N)C(=O)N[C@@H](Cc2ccccc2)C(=O)N2CCc3ccccc3[C@@H]2C(=O)N[C@@H](CCCCN)C(=O)N[C@@H](Cc2ccc(O)cc2)C(=O)N1)C(=O)O`, the Emax [3] was 113%, the EC50 (Urotensin-2 receptor [4]; read-out: EC50) was 21 nM and the IC50 (Urotensin-2 receptor [2]; read-out: IC50) was 21 nM.

For `CC(C)[C@H](NC(=O)[C@@H]1CSSC[C@H](NC(=O)[C@H](CC(=O)O)NC(=O)[C@@H]2CCCN2C(=O)[C@@H](NC(=O)[C@@H](N)CCC(=O)O)[C@@H](C)O)C(=O)N[C@@H](Cc2ccccc2)C(=O)N2CCC[C@H]2C(=O)N[C@@H](CCCCN)C(=O)N[C@@H](Cc2ccc(O)cc2)C(=O)N1)C(=O)O` (H-ETPDCFPKYCV-OH; disulfide 5-10), the Emax [1] was 69%.

In the case of `CC(C)[C@H](NC(=O)[C@@H]1CSSC[C@H](NC(=O)[C@H](C)N)C(=O)N[C@@H](Cc2ccccc2)C(=O)N2Cc3[nH]c4ccccc4c3C[C@@H]2C(=O)N[C@@H](CCCCN)C(=O)N[C@@H](Cc2ccc(O)cc2)C(=O)N1)C(=O)O`, the Emax [1] is reported as 42%.

With `CC(C)[C@H](NC(=O)[C@@H]1CSSC[C@H](NC(=O)[C@H](C)N)C(=O)N[C@@H](Cc2ccccc2)C(=O)N[C@H](c2ccccc2)C(=O)N[C@@H](CCCCN)C(=O)N[C@@H](Cc2ccc(O)cc2)C(=O)N1)C(=O)O` the Emax [3] was 116%, the EC50 (Urotensin-2 receptor [4]; read-out: EC50) was 117 nM and the IC50 (Urotensin-2 receptor [2]; read-out: pIC50 (converted)) was 27.5 nM.

Work on `CC(C)[C@H](NC(=O)[C@@H]1CSSC[C@H](NC(=O)[C@H](C)N)C(=O)N[C@@H](Cc2ccccc2)C(=O)N[C@@H](C(c2ccccc2)c2ccccc2)C(=O)N[C@@H](CCCCN)C(=O)N[C@@H](Cc2ccc(O)cc2)C(=O)N1)C(=O)O` yielded an Emax [1] of 23%, an EC50 (Urotensin-2 receptor [4]; read-out: pEC50 (converted)) greater than 1000 nM and an IC50 (Urotensin-2 receptor [2]; read-out: pIC50 (converted)) of 282 nM.

For `CC(C)[C@H](NC(=O)[C@@H]1CSSC[C@H](NC(=O)[C@H](C)N)C(=O)N[C@@H](Cc2ccccc2)C(=O)N[C@H](C(C)(C)C)C(=O)N[C@@H](CCCCN)C(=O)N[C@@H](Cc2ccc(O)cc2)C(=O)N1)C(=O)O`, the Emax [1] was 64%, the EC50 (Urotensin-2 receptor [4]; read-out: pEC50 (converted)) was greater than 1000 nM and the IC50 (Urotensin-2 receptor [2]; read-out: pIC50 (converted)) was greater than 1000 nM.

`CC(C)[C@H](NC(=O)[C@@H]1CSSC[C@H](NC(=O)[C@H](C)N)C(=O)N[C@@H](Cc2ccccc2)C(=O)N[C@@H](C(C)(C)C)C(=O)N[C@@H](CCCCN)C(=O)N[C@@H](Cc2ccc(O)cc2)C(=O)N1)C(=O)O` was tested, and the Emax [3] was “inactive”, the EC50 (Urotensin-2 receptor [4]) was “Not Active” and the IC50 (Urotensin-2 receptor [2]; read-out: pIC50 (converted)) was greater than 10000 nM.

With `CC(C)[C@H](NC(=O)[C@@H]1CSSC[C@H](NC(=O)[C@H](C)N)C(=O)N[C@@H](Cc2ccccc2)C(=O)N2CCc3ccccc3[C@H]2C(=O)N[C@@H](CCCN)C(=O)N[C@@H](Cc2ccc(O)cc2)C(=O)N1)C(=O)O` the Emax [3] was “inactive”, the EC50 (Urotensin-2 receptor [4]) was “Not Active” and the IC50 (Urotensin-2 receptor [2]; cho) was “Not Active”.

`CC(C)[C@H](NC(=O)[C@@H]1CSSC[C@H](NC(=O)[C@H](CC(=O)O)NC(=O)[C@@H]2CCCN2C(=O)[C@@H](NC(=O)[C@@H](N)CCC(=O)O)[C@@H](C)O)C(=O)N[C@@H](Cc2ccccc2)C(=O)N[C@@H](Cc2c[nH]c3ccccc23)C(=O)N[C@@H](CCCCN)C(=O)N[C@@H](Cc2ccc(O)cc2)C(=O)N1)C(=O)O` [HUMAN UROTENSIN II] gave an EC50 (Urotensin-2 receptor [4]; read-out: EC50) of 1 nM and an EC50 (Urotensin-2 receptor [4]; read-out: pEC50 (converted)) of 0.832 nM.

Compound `CC(C)[C@H](NC(=O)[C@@H]1CSSC[C@H](NC(=O)[C@H](C)N)C(=O)N[C@@H](Cc2ccccc2)C(=O)N[C@H]2Cc3c([nH]c4ccccc34)CN(C2=O)[C@@H](CCCCN)C(=O)N[C@@H](Cc2ccc(O)cc2)C(=O)N1)C(=O)O` has an Emax [3] of 51%, an EC50 (Urotensin-2 receptor [4]; read-out: EC50) of 181 nM and an EC50 (Urotensin-2 receptor [4]; read-out: pEC50 (converted)) of 380 nM. It also gave an IC50 (Urotensin-2 receptor [2]; read-out: IC50) of 808 nM.

For `CC(C)[C@H](NC(=O)[C@@H]1CSSC(C)(C)[C@@H](NC(=O)[C@H](C)N)C(=O)N[C@@H](Cc2ccccc2)C(=O)N2CCc3ccccc3[C@H]2C(=O)N[C@@H](CCCCN)C(=O)N[C@@H](Cc2ccc(O)cc2)C(=O)N1)C(=O)O`, the Emax [3] was “inactive”.

With `CC(C)[C@H](NC(=O)[C@@H]1CSSC[C@H](NC(=O)[C@H](C)N)C(=O)N[C@@H](Cc2ccccc2)C(=O)N2Cc3[nH]c4ccccc4c3C[C@H]2C(=O)N[C@@H](CCCCN)C(=O)N[C@@H](Cc2ccc(O)cc2)C(=O)N1)C(=O)O` the Emax [3] was 139%.

Work on `CC(C)[C@H](NC(=O)[C@@H]1CSSC[C@H](NC(=O)[C@H](C)N)C(=O)N[C@@H](Cc2ccccc2)C(=O)N2CCc3ccccc3[C@H]2C(=O)N[C@@H](CCCCN)C(=O)N[C@@H](Cc2ccc(O)cc2)C(=O)N1)C(=O)O` yielded an Emax [3] of 126%, an EC50 (Urotensin-2 receptor [4]; read-out: EC50) of 22 nM and an IC50 (Urotensin-2 receptor [2]; read-out: IC50) of 10 nM.

With `CC(C)[C@H](NC(=O)[C@@H]1CSSC[C@H](NC(=O)[C@H](C)N)C(=O)N[C@@H](Cc2ccccc2)C(=O)N[C@@H]2Cc3c([nH]c4ccccc34)CN(C2=O)[C@@H](CCCCN)C(=O)N[C@@H](Cc2ccc(O)cc2)C(=O)N1)C(=O)O` the Emax [3] was 148%, the EC50 (Urotensin-2 receptor [4]; read-out: EC50) was 159 nM and the EC50 (Urotensin-2 receptor [4]; read-out: pEC50 (converted)) was 162 nM. It also gave an IC50 (Urotensin-2 receptor [2]; read-out: IC50) of 60 nM.

`CC(C)[C@H](NC(=O)[C@@H]1CSSC(C)(C)[C@H](NC(=O)[C@H](C)N)C(=O)N[C@@H](Cc2ccccc2)C(=O)N2CCc3ccccc3[C@H]2C(=O)N[C@@H](CCCCN)C(=O)N[C@@H](Cc2ccc(O)cc2)C(=O)N1)C(=O)O` was tested, and the EC50 (Urotensin-2 receptor [4]) was “Not Active”.

`CC(C)[C@H](NC(=O)[C@@H]1CSSC[C@H](NC(=O)[C@H](C)N)C(=O)N[C@@H](Cc2ccccc2)C(=O)N2Cc3ccccc3C[C@@H]2C(=O)N[C@@H](CCCCN)C(=O)N[C@@H](Cc2ccc(O)cc2)C(=O)N1)C(=O)O` showed an Emax [3] of 128%, an EC50 (Urotensin-2 receptor [4]; read-out: EC50) of 259 nM and an EC50 (Urotensin-2 receptor [4]; read-out: pEC50 (converted)) of 832 nM.

`CC(C)[C@H](NC(=O)[C@@H]1CSSC[C@H](NC(=O)[C@H](C)N)C(=O)N[C@@H](Cc2ccccc2)C(=O)N[C@@H](CC2CCCCC2)C(=O)N[C@@H](CCCCN)C(=O)N[C@@H](Cc2ccc(O)cc2)C(=O)N1)C(=O)O` showed an Emax [1] of 77% and an EC50 (Urotensin-2 receptor [4]; read-out: pEC50 (converted)) greater than 1000 nM.

For `CC(C)[C@H](NC(=O)[C@@H]1CSSC[C@H](NC(=O)[C@H](C)N)C(=O)N[C@@H](Cc2ccccc2)C(=O)N[C@@H](c2ccccc2)C(=O)N[C@@H](CCCCN)C(=O)N[C@@H](Cc2ccc(O)cc2)C(=O)N1)C(=O)O`, the Emax [3] was 102% and the EC50 (Urotensin-2 receptor [4]; read-out: EC50) was 251 nM.

In the case of `CC(C)[C@H](NC(=O)[C@@H]1CSSC[C@H](NC(=O)[C@H](C)N)C(=O)N[C@@H](Cc2ccccc2)C(=O)N[C@H](Cc2cccc3ccccc23)C(=O)N[C@@H](CCCCN)C(=O)N[C@@H](Cc2ccc(O)cc2)C(=O)N1)C(=O)O`, the Emax [1] is reported as 34% and the EC50 (Urotensin-2 receptor [4]; read-out: EC50) is reported as 825 nM.

`CC(C)[C@H](NC(=O)[C@@H]1CSSC[C@H](NC(=O)[C@H](C)N)C(=O)N[C@@H](Cc2ccccc2)C(=O)N[C@@H](Cc2cccc3ccccc23)C(=O)N[C@@H](CCCCN)C(=O)N[C@@H](Cc2ccc(O)cc2)C(=O)N1)C(=O)O` gave an Emax [3] of 86%, an EC50 (Urotensin-2 receptor [4]; read-out: EC50) of 54 nM and an IC50 (Urotensin-2 receptor [2]; read-out: IC50) of 17 nM.

In the case of `CC(C)[C@H](NC(=O)[C@@H]1CSSC[C@@H](NC(=O)[C@H](CC(=O)O)NC(=O)[C@H]2CCCN2C(=O)[C@@H](NC(=O)[C@@H](N)CCC(=O)O)[C@@H](C)O)C(=O)N[C@H](Cc2ccccc2)C(=O)N[C@@H](Cc2c[nH]c3ccccc23)C(=O)N[C@H](CCCCN)C(=O)N[C@@H](Cc2ccc(O)cc2)C(=O)N1)C(=O)O`, the Emax [3] is reported as 117%.

Work on `CC(C)[C@H](NC(=O)[C@@H]1CSSC[C@H](NC(=O)[C@H](C)N)C(=O)N[C@@H](Cc2ccccc2)C(=O)N2Cc3ccccc3C[C@H]2C(=O)N[C@@H](CCCCN)C(=O)N[C@@H](Cc2ccc(O)cc2)C(=O)N1)C(=O)O` yielded an Emax [1] of 43%, an EC50 (Urotensin-2 receptor [4]; read-out: pEC50 (converted)) greater than 1000 nM and an IC50 (Urotensin-2 receptor [2]; read-out: pIC50 (converted)) greater than 10000 nM.

`CC(C)[C@H](NC(=O)[C@@H]1CSSC[C@H](NC(=O)[C@H](C)N)C(=O)N[C@@H](Cc2ccccc2)C(=O)N[C@@H](Cc2c[nH]c3ccccc23)C(=O)N[C@@H](CCCCN)C(=O)N[C@@H](Cc2ccc(O)cc2)C(=O)N1)C(=O)O` was tested, and the Emax [3] was 100%, the EC50 (Urotensin-2 receptor [4]; read-out: EC50) was 7 nM and the EC50 (Urotensin-2 receptor [4]; read-out: pEC50 (converted)) was 8.13 nM.
